The source of these data is article PMC3497310, “Binding of the Phage Display Derived Peptide CaIX-P1 on Human Colorectal Carcinoma Cells Correlates with the Expression of Carbonic Anhydrase IX” (International Journal of Molecular Sciences, 2012).

Data set [1] deals with HCT116 cells. Put plainly: In vitro binding kinetics of 125I-CaIX-P1 at two cell densities. The following applies: 300,000 vs 2,000,000 cells cultivated 48 h; incubation 10-120 min; serum free medium; uptake as percent applied dose per 10^6 cells; p < 0.05. More on the design: species or system human. The method, then:
(§1) 300,000 and 2,000,000 human colorectal carcinoma HCT116 and pancreatic carcinoma BxPC3 cells were cultivated in 6-well plates for 48 h. RPMI 1640 medium with 1% BSA was used for cell blocking. Thereafter, 1 mL RPMI 1640 medium containing about 1.0 × 10^6 cpm ^125I-labeled peptide (specific activity ~50 GBq/μmol) was added and cell incubation was carried out for various time periods (10-120 min). To characterize the specificity of radioligand binding, co-incubation with unlabeled CaIX-P1 at various concentrations (10^-4 to 10^-9 mol/L) was performed. After incubation the cells were washed with ice cold PBS and lysed with 0.5 mL NaOH 0.3 mol/L. The lysate was collected and the radioactivity was measured with a γ-counter ([…]; Berthold Technologies). Bound radioactivity, representing the amount of peptide accumulation on HCT116 cells, was calculated as percentage applied dose per 10^6 cells. Binding specificity was further determined using octreotide, HBP-1 and VA131 as negative control competitors at the same concentration as CaIX-P1. All binding and competition experiments were performed in serum free medium in order to avoid peptide degradation by serum proteases.

Another data set relates to BxPC3 cells. As to the kind of experiment: In vitro binding kinetics of 125I-CaIX-P1 at two cell densities (negative control cells). Further details: species or system human. Particulars: 300,000 vs 2,000,000 cells cultivated 48 h, incubation 10-120 min, serum free medium. The method, then:
as §1

For data set [2], the system named is HCT116 cells. As to the kind of experiment: Fluorescence microscopy of cell labeling. The following applies: HCT116 cells grown to high density; 1 h at 37 °C; medium without FCS; 100 μL of 10^-4-10^-5 M stock in 1 mL; after fixation. In kind it is cell-based, human. As for the experimental part: Human colorectal carcinoma HCT116 cells were seeded in culture plates (1,000,000–2,000,000 cells/well in 3 mL medium) containing glass coverslips and were allowed to grow for 48 h. The medium was replaced by 900 μL fresh medium (without FCS) and 100 μL 10^−4–10^−5 M sterilized stock solution of FITC-labeled-CaIX-P1 or fluorescein at the same concentration was added to the cells. The plates were incubated for 1 h at 37 °C. After incubation the cells were washed thrice with 1 mL ice cold PBS (pH 7.4). Subsequently the cells were fixed with 2% formaldehyde in PBS (pH 7.4) at […] for 20 min. This procedure was performed on ice. The cells were washed with ice cold PBS (1 × 600 μL, pH 7.4) and the cover slips were mounted on a slice with DAKO fluorescent medium. Cells were photographed using a Leica DM-RA2 fluorescence microscope. Digitalized figures were processed using standard imaging software (Adobe Photoshop 6.0/Illustrator 9.0).

For data set [3], the system named is HCT116 cells. Type of data set: binding, human. Particulars: 48 h. The method, then:
as §1

For data set [4] the following is noted: serum stability; rapid degradation by serum proteases; cited from earlier work.

Where no end group is shown, it is not given here.

With “YNTNHVPLSPKY [^125I-CaIX-P1, CaIX-P1 radiolabeled with 125I using the chloramine T method]”, the “binding of 125I-CaIX-P1 per 10^6 HCT116 cells with increasing cell density” value in the data set with HCT116 cells [1] is “significantly increased binding”. Further, in the data set on BxPC3 cells, the “binding of 125I-CaIX-P1 on BxPC3 cells at different cell densities” value is given as “strongly decreased binding to the background level”. For the compound `O=C1OC2(c3ccc(O)cc3Oc3cc(O)ccc32)c2ccccc21` [fluorescein], the “fluorescence signal of cells” value in the data set on HCT116 cells [2] was “strongly decreased signal to the background level”.

One may read the IC50 as the concentration needed to halve the response being measured. Compound YNTNHVPLSPKY [CaIX-P1] had an IC50 in the data set on HCT116 cells [3] of 1000 to 5000 nM. Further, the half-life in serum result in data set [4] is listed as “about 25 min”.
